Reference: patent US20070293580A1, “Methods for Buccal, Lingual or Sublingual Dosing Regimens of Epinephrine for the Treatment of Allergic Emergencies” (priority 2006, published 2007)

Tests used:
symptoms of anaphylaxis [1] = conditions: 40 mg
Experimental: (§1) A patient experiencing an allergic emergency initiates treatment at the onset of shortness of breath by self administering 40 mg of epinephrine free base in a buccal dosage form.
as §1

symptoms of anaphylaxis [2] = conditions: 30 mg, then 45 mg at approximately 5 minute intervals without amelioration, within about five minutes after the third dose
Experimental: A patient experiencing an allergic emergency initiates treatment at the onset of shortness of breath by self administering 30 mg of epinephrine free base in a lingual dosage form. After approximately 5 minutes pass without amelioration of the symptoms of anaphylaxis, the patient self administers a second lingual dosage form comprising 30 mg of epinephrine free base. After another approximately 5 minutes pass without amelioration of the symptoms of anaphylaxis, the patient self administers a third lingual dosage form comprising 45 mg of epinephrine free base.

CNC[C@H](O)c1ccc(O)c(O)c1 [epinephrine free base, epinephrine]
symptoms of anaphylaxis are relieved: patient's symptoms of anaphylaxis after the third buccal dose (symptoms of anaphylaxis [1]; then 60 mg at approximately 5 minute intervals without amelioration, within about five minutes after the third dose) | patient's symptoms of anaphylaxis after the second buccal dose (symptoms of anaphylaxis [1]; then second 40 mg after approximately 5 minutes without amelioration, within about five minutes after the second dose) | patient's symptoms of anaphylaxis after the third lingual dose (symptoms of anaphylaxis [2])
